The NIST ThermoML archive (doi:10.1016/j.jct.2004.12.008)

Assay: xn = mol fraction of the nth substance listed
Settings: 101 kPa, Liquid

O=[N+]([O-])c1ccccc1 [nitrobenzene] + Cc1ccc(C)cc1
Settings	mass density [kg/m3]
293.15 K, x2 = 0	1202.95
293.15 K, x2 = 0.0587	1179.74
293.15 K, x2 = 0.1232	1154.82
293.15 K, x2 = 0.1933	1128.38
293.15 K, x2 = 0.2516	1106.86
293.15 K, x2 = 0.3298	1078.63
293.15 K, x2 = 0.3891	1057.67
293.15 K, x2 = 0.4423	1039.19
293.15 K, x2 = 0.4983	1020.04
293.15 K, x2 = 0.5512	1002.23
293.15 K, x2 = 0.6242	978.08
293.15 K, x2 = 0.6943	955.34
293.15 K, x2 = 0.7523	936.85
293.15 K, x2 = 0.8211	915.28
293.15 K, x2 = 0.8723	899.49
293.15 K, x2 = 0.9421	878.29
303.15 K, x2 = 0	1193.56
303.15 K, x2 = 0.0623	1168.84
303.15 K, x2 = 0.1123	1149.43
303.15 K, x2 = 0.1823	1122.85
303.15 K, x2 = 0.2429	1100.38
303.15 K, x2 = 0.3189	1072.84
303.15 K, x2 = 0.3894	1047.9
303.15 K, x2 = 0.4376	1031.16
303.15 K, x2 = 0.4889	1013.63
303.15 K, x2 = 0.5321	999.06
303.15 K, x2 = 0.6078	973.98
303.15 K, x2 = 0.6731	952.79
303.15 K, x2 = 0.7561	926.4
303.15 K, x2 = 0.8247	905.05
303.15 K, x2 = 0.8871	885.97
303.15 K, x2 = 0.9316	872.57
313.15 K, x2 = 0	1183.36
313.15 K, x2 = 0.0598	1159.6
313.15 K, x2 = 0.1342	1130.81
313.15 K, x2 = 0.1732	1116.05
313.15 K, x2 = 0.2311	1094.53
313.15 K, x2 = 0.3239	1060.94
313.15 K, x2 = 0.3971	1035.18
313.15 K, x2 = 0.4576	1014.35
313.15 K, x2 = 0.514	995.29
313.15 K, x2 = 0.5672	977.61
313.15 K, x2 = 0.6234	959.24
313.15 K, x2 = 0.6831	940.06
313.15 K, x2 = 0.7421	921.43
313.15 K, x2 = 0.7901	906.5
313.15 K, x2 = 0.8611	884.8
313.15 K, x2 = 0.9287	864.54
323.15 K, x2 = 0	1172.38
323.15 K, x2 = 0.048	1153.29
323.15 K, x2 = 0.1243	1123.72
323.15 K, x2 = 0.1892	1099.28
323.15 K, x2 = 0.2572	1074.3
323.15 K, x2 = 0.3249	1050.03
323.15 K, x2 = 0.4023	1022.99
323.15 K, x2 = 0.4683	1000.47
323.15 K, x2 = 0.5138	985.24
323.15 K, x2 = 0.5871	961.14
323.15 K, x2 = 0.6422	943.39
323.15 K, x2 = 0.7139	920.72
323.15 K, x2 = 0.7811	899.92
323.15 K, x2 = 0.8428	881.17
323.15 K, x2 = 0.8781	870.6
323.15 K, x2 = 0.9424	851.62
333.15 K, x2 = 0	1160.59
333.15 K, x2 = 0.0668	1134.27
333.15 K, x2 = 0.1235	1112.51
333.15 K, x2 = 0.1983	1084.57
333.15 K, x2 = 0.2547	1064.03
333.15 K, x2 = 0.3133	1043.14
333.15 K, x2 = 0.3942	1015.02
333.15 K, x2 = 0.4789	986.4
333.15 K, x2 = 0.5287	969.96
333.15 K, x2 = 0.5902	950.01
333.15 K, x2 = 0.6517	930.44
333.15 K, x2 = 0.7244	907.78
333.15 K, x2 = 0.7923	887.08
333.15 K, x2 = 0.8321	875.13
333.15 K, x2 = 0.8832	860
333.15 K, x2 = 0.9329	845.51
343.15 K, x2 = 0	1147.99
343.15 K, x2 = 0.0623	1123.65
343.15 K, x2 = 0.1324	1097.02
343.15 K, x2 = 0.1824	1078.5
343.15 K, x2 = 0.2561	1051.86
343.15 K, x2 = 0.3249	1027.65
343.15 K, x2 = 0.3867	1006.43
343.15 K, x2 = 0.4562	983.11
343.15 K, x2 = 0.5139	964.17
343.15 K, x2 = 0.5719	945.49
343.15 K, x2 = 0.6317	926.6
343.15 K, x2 = 0.691	908.21
343.15 K, x2 = 0.7613	886.86
343.15 K, x2 = 0.8312	866.07
343.15 K, x2 = 0.8931	848.03
343.15 K, x2 = 0.9537	830.69
353.15 K, x2 = 0	1134.61
353.15 K, x2 = 0.0479	1116.05
353.15 K, x2 = 0.1123	1091.72
353.15 K, x2 = 0.1742	1068.95
353.15 K, x2 = 0.2498	1041.91
353.15 K, x2 = 0.3013	1023.94
353.15 K, x2 = 0.3781	997.79
353.15 K, x2 = 0.4538	972.7
353.15 K, x2 = 0.5247	949.8
353.15 K, x2 = 0.6149	921.44
353.15 K, x2 = 0.662	906.96
353.15 K, x2 = 0.7137	891.32
353.15 K, x2 = 0.7832	870.68
353.15 K, x2 = 0.8312	856.69
353.15 K, x2 = 0.8813	842.3
353.15 K, x2 = 0.9422	825.1

O=[N+]([O-])c1ccccc1 [nitrobenzene] + Cc1cccc(C)c1
Settings	mass density [kg/m3]
293.15 K, x2 = 0	1202.95
293.15 K, x2 = 0.0549	1181.56
293.15 K, x2 = 0.1248	1154.92
293.15 K, x2 = 0.1832	1133.14
293.15 K, x2 = 0.2489	1109.13
293.15 K, x2 = 0.3134	1086.03
293.15 K, x2 = 0.3681	1066.8
293.15 K, x2 = 0.4234	1047.66
293.15 K, x2 = 0.4892	1025.28
293.15 K, x2 = 0.5321	1010.91
293.15 K, x2 = 0.6013	988.09
293.15 K, x2 = 0.6539	971.01
293.15 K, x2 = 0.7242	948.56
293.15 K, x2 = 0.7811	930.68
293.15 K, x2 = 0.8631	905.36
293.15 K, x2 = 0.9321	884.44
303.15 K, x2 = 0	1193.56
303.15 K, x2 = 0.0478	1174.85
303.15 K, x2 = 0.1132	1149.78
303.15 K, x2 = 0.1812	1124.32
303.15 K, x2 = 0.2343	1104.85
303.15 K, x2 = 0.2943	1083.27
303.15 K, x2 = 0.3535	1062.36
303.15 K, x2 = 0.4143	1041.29
303.15 K, x2 = 0.4711	1021.95
303.15 K, x2 = 0.5243	1004.13
303.15 K, x2 = 0.6123	975.24
303.15 K, x2 = 0.6811	953.14
303.15 K, x2 = 0.7423	933.82
303.15 K, x2 = 0.8132	911.82
303.15 K, x2 = 0.8834	890.44
303.15 K, x2 = 0.9432	872.53
313.15 K, x2 = 0	1183.37
313.15 K, x2 = 0.0723	1155.17
313.15 K, x2 = 0.1289	1133.64
313.15 K, x2 = 0.1732	1117.09
313.15 K, x2 = 0.2212	1099.45
313.15 K, x2 = 0.2811	1077.85
313.15 K, x2 = 0.3635	1048.82
313.15 K, x2 = 0.4244	1027.87
313.15 K, x2 = 0.4823	1008.31
313.15 K, x2 = 0.5423	988.4
313.15 K, x2 = 0.6131	965.35
313.15 K, x2 = 0.6732	946.15
313.15 K, x2 = 0.749	922.4
313.15 K, x2 = 0.8313	897.16
313.15 K, x2 = 0.8724	884.76
313.15 K, x2 = 0.9331	866.7
323.15 K, x2 = 0	1172.38
323.15 K, x2 = 0.0698	1145.18
323.15 K, x2 = 0.1321	1121.54
323.15 K, x2 = 0.1832	1102.55
323.15 K, x2 = 0.2576	1075.53
323.15 K, x2 = 0.3139	1055.55
323.15 K, x2 = 0.3781	1033.23
323.15 K, x2 = 0.4527	1007.89
323.15 K, x2 = 0.5198	985.6
323.15 K, x2 = 0.5631	971.45
323.15 K, x2 = 0.6398	946.86
323.15 K, x2 = 0.7043	926.6
323.15 K, x2 = 0.7731	905.4
323.15 K, x2 = 0.8343	886.88
323.15 K, x2 = 0.8623	878.51
323.15 K, x2 = 0.9423	854.95
333.15 K, x2 = 0	1160.59
333.15 K, x2 = 0.0499	1141.14
333.15 K, x2 = 0.1244	1112.83
333.15 K, x2 = 0.1674	1096.86
333.15 K, x2 = 0.234	1072.65
333.15 K, x2 = 0.3089	1046.1
333.15 K, x2 = 0.3598	1028.47
333.15 K, x2 = 0.4242	1006.59
333.15 K, x2 = 0.4972	982.35
333.15 K, x2 = 0.5672	959.63
333.15 K, x2 = 0.6319	939.07
333.15 K, x2 = 0.7133	913.77
333.15 K, x2 = 0.7632	898.55
333.15 K, x2 = 0.8347	877.13
333.15 K, x2 = 0.8824	863.08
333.15 K, x2 = 0.9323	848.58
343.15 K, x2 = 0	1148
343.15 K, x2 = 0.0598	1124.88
343.15 K, x2 = 0.1123	1105.06
343.15 K, x2 = 0.1842	1078.58
343.15 K, x2 = 0.2542	1053.5
343.15 K, x2 = 0.3243	1029.04
343.15 K, x2 = 0.3831	1008.98
343.15 K, x2 = 0.4425	989.14
343.15 K, x2 = 0.5131	966.07
343.15 K, x2 = 0.5728	946.96
343.15 K, x2 = 0.6392	926.14
343.15 K, x2 = 0.6901	910.47
343.15 K, x2 = 0.7532	891.38
343.15 K, x2 = 0.8242	870.31
343.15 K, x2 = 0.8731	856.05
343.15 K, x2 = 0.9238	841.48
353.15 K, x2 = 0	1134.61
353.15 K, x2 = 0.0532	1114.19
353.15 K, x2 = 0.1289	1085.92
353.15 K, x2 = 0.1984	1060.73
353.15 K, x2 = 0.2429	1044.96
353.15 K, x2 = 0.3092	1021.96
353.15 K, x2 = 0.3711	1000.98
353.15 K, x2 = 0.4248	983.16
353.15 K, x2 = 0.4891	962.26
353.15 K, x2 = 0.5518	942.3
353.15 K, x2 = 0.6138	922.97
353.15 K, x2 = 0.6731	904.84
353.15 K, x2 = 0.7294	887.93
353.15 K, x2 = 0.8013	866.76
353.15 K, x2 = 0.8673	847.71
353.15 K, x2 = 0.9451	825.73
